Tests used:
[1] = target: T1, Adenosine receptor A1 (Homo sapiens) (UniProt P30542); assay: Binding affinity to human adenosine A1A receptor expressed in human HEK293 cell membrane at 10 uM by radioligand inhibition assay; format: cell membranes
T1 sequence (whole entry): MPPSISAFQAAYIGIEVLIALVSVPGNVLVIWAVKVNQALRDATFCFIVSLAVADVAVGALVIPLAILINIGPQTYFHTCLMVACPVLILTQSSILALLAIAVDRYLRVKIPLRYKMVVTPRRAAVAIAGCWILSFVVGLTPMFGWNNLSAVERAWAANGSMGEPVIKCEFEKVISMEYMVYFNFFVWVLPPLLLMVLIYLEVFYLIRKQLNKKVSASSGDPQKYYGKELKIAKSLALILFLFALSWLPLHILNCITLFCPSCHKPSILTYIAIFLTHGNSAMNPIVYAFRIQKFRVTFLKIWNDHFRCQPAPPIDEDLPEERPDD

Adenosine receptor A3 [2] = target: T2, Adenosine receptor A3 (Homo sapiens, UniProt P0DMS8); assay: Displacement of [125I] N6-(4-amino-3-iodobenzyl)adenosine-5'-N-methyluronamide from human A3A receptor stably expressed in HEK293 cell membrane by radioligand inhibition assay; format: cell membranes
T2 sequence (P0DMS8 whole entry): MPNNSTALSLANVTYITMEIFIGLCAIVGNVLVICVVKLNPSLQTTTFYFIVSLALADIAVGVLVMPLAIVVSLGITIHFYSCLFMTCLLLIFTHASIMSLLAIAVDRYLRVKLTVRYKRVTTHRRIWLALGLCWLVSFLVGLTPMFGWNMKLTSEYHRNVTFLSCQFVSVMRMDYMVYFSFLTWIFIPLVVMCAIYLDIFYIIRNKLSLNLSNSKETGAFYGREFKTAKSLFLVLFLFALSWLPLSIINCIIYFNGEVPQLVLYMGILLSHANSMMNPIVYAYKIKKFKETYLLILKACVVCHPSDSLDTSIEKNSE

Adenosine receptor A2a [3] = target: T3, Adenosine receptor A2a (Homo sapiens, UniProt P29274); assay: Binding affinity to human adenosine A2A receptor expressed in human HEK293 cell membrane at 10 uM by radioligand inhibition assay; format: cell membranes
T3 sequence (P29274 whole entry): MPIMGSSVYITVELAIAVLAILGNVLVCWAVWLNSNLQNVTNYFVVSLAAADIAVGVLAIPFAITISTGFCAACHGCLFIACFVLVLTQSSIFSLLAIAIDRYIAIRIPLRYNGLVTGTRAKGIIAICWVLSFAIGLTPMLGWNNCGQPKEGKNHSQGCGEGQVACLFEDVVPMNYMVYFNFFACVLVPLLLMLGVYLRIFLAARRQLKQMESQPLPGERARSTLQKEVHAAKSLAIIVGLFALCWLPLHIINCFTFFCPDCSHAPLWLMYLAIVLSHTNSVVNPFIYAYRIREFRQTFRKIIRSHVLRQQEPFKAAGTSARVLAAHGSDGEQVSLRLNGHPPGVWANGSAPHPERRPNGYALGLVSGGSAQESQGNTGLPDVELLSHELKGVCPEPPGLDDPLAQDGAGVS

Adenosine receptor A3 [4] = target: T4, Adenosine receptor A3 (Mus musculus, UniProt Q61618); assay: Displacement of [125I] N6-4-amino-3-iodobenzyl adenosine 5-N-methyluronamide from mouse A3A receptor stably expressed in HEK293 cell membrane by radioligand inhibition assay; format: cell membranes
T4 sequence (Q61618 whole entry): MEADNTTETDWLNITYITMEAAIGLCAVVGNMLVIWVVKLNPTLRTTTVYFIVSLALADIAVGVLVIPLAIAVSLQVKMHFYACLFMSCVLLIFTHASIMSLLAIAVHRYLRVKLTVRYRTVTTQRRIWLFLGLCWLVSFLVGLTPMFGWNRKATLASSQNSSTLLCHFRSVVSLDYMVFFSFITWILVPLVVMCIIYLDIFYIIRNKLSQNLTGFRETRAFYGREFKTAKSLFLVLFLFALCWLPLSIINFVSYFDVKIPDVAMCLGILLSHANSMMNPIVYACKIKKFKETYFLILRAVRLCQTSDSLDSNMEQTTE

[5] = target: T5, Adenosine receptor A1 (Mus musculus) (UniProt Q60612); assay: Binding affinity to mouse adenosine A1A receptor expressed in human HEK293 cell membrane by radioligand inhibition assay; format: cell membranes; parameters: concentration or dose not given beside the values; details: concentration not given here
T5 sequence (whole entry): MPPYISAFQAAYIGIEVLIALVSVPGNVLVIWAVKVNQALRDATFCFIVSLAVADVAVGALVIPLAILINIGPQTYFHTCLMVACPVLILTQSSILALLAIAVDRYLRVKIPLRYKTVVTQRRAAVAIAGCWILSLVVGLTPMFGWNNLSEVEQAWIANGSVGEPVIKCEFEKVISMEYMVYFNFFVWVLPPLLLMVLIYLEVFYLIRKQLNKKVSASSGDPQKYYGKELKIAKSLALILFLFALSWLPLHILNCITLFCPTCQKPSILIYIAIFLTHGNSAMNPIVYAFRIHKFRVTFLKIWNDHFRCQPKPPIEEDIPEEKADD

Adenosine receptor A1 = target: T6, Adenosine receptor A1 (Mus musculus, UniProt Q60612); assay: Displacement of [3H] N6-R-phenylisopropyladenosine from mouse A1A receptor stably expressed in HEK293 cell membrane by radioligand inhibition assay; format: cell membranes
T6 sequence (Q60612 whole entry): T5 sequence (whole entry)

Adenosine receptor A3 [6] = target: T2, Adenosine receptor A3; assay: Agonist activity at human adenosine A3A receptor stably expressed in HEK293 cells assessed as mini G-alpha recruitment potency by luciferase based NanoBiT assay; format: functional, cell-based
Adenosine receptor A2a [7] = target: T3, Adenosine receptor A2a; assay: Displacement of [3H]-2-p-2-(carboxyethyl)phenyl-ethylamino-5'-N-ethylcarboxamidoadenosine from human A2A receptor stably expressed in HEK293 cell membrane by radioligand inhibition assay; format: cell membranes
Adenosine receptor A3 [8] = target: T2, Adenosine receptor A3; assay: Agonist activity at human adenosine A3A receptor stably expressed in HEK293 cells assessed as beta arrestin 2 recruitment potency by luciferase based NanoBiT assay; format: functional, cell-based

Row | SMILES | inhibition [1] [%] | Ki (Adenosine receptor A3 [2]) [nM] | inhibition (Adenosine receptor A2a [3]) [%] | Ki (Adenosine receptor A3 [4]) [nM] | inhibition [5] [%] | Ki (Adenosine receptor A1) [nM] | EC50 (Adenosine receptor A3 [6]) [nM] | Ki (Adenosine receptor A2a [7]) [nM] | EC50 (Adenosine receptor A3 [8]) [nM]
1 | CNC(=O)[C@@]12C[C@@H]1[C@@H](n1cnc3c(NCCc4ccc(O)c(O)c4)nc(C#Cc4ccc(Cl)s4)nc31)[C@H](O)[C@@H]2O | 25 | 20.8 | 8 | 0.91 |  |  |  |  | 
2 | CNC(=O)[C@@]12C[C@@H]1[C@@H](n1cnc3c(NCCc4ccc(O)c(OC)c4)nc(C#Cc4ccco4)nc31)[C@H](O)[C@@H]2O | 9 | 3.25 | 32 | 1.56 | 40 |  |  |  | 
3 | CNC(=O)[C@@]12C[C@@H]1[C@@H](n1cnc3c(NCCc4ccc(OC)c(O)c4)nc(OCCCC4CCCCC4)nc31)[C@H](O)[C@@H]2O |  |  |  | 6.42 |  |  |  |  | 
4 | CNC(=O)[C@@]12C[C@@H]1[C@@H](n1cnc3c(NCCc4ccc(OC)c(OC)c4)nc(I)nc31)[C@H](O)[C@@H]2O |  |  |  | 5.31 |  | 842 |  |  | 
5 | CNC(=O)[C@@]12C[C@@H]1[C@@H](n1cnc3c(NCCc4ccc(OC)c(O)c4)nc(OC)nc31)[C@H](O)[C@@H]2O | 59 | 3.89 |  | 5.43 |  |  | 38.5 | 10200 | 50.2
6 | CNC(=O)[C@@]12C[C@@H]1[C@@H](n1cnc3c(NCCc4ccc(O)c(OC)c4)nc(C#Cc4ccc(F)s4)nc31)[C@H](O)[C@@H]2O | 2 | 3.31 | 32 | 1.46 | 48 |  | 23.7 |  | 24.9
7 | CNC(=O)[C@@]12C[C@@H]1[C@@H](n1cnc3c(NCCc4ccc(OC)c(O)c4)nc(OCCC(C)C)nc31)[C@H](O)[C@@H]2O |  |  |  | 5.03 |  | 480 |  | 4860 | 
8 | CNC(=O)[C@@]12C[C@@H]1[C@@H](n1cnc3c(NCCc4ccc(O)c(OC)c4)nc(C#Cc4cccs4)nc31)[C@H](O)[C@@H]2O | 12 | 3.33 | 37 | 1.26 | 47 |  |  |  | 
9 | CNC(=O)[C@@]12C[C@@H]1[C@@H](n1cnc3c(NCCc4ccc(OC)c(O)c4)nc(OCC4CC4)nc31)[C@H](O)[C@@H]2O |  |  |  | 11.9 |  | 151 |  | 4720 | 
10 | CCOC(=O)[C@@]12C[C@@H]1[C@@H](n1cnc3c(NCCc4ccc(OC)c(O)c4)nc(C#Cc4ccc(Cl)s4)nc31)[C@H](O)[C@@H]2O | 7 | 32.8 | 25 | 104 | 56 |  |  |  | 
11 | CNC(=O)[C@@]12C[C@@H]1[C@@H](n1cnc3c(NCCc4ccccc4)nc(C#Cc4ccccc4Cl)nc31)[C@H](O)[C@@H]2O | 27 | 0.58 | 30 |  |  |  |  |  | 
12 | CNC(=O)[C@@]12C[C@@H]1[C@@H](n1cnc3c(NCCc4ccc(O)c(O)c4)nc(C#Cc4ccc(Br)s4)nc31)[C@H](O)[C@@H]2O | 31 | 62.7 | 6 | 2.5 |  |  |  |  | 
13 | CNC(=O)[C@@]12C[C@@H]1[C@@H](n1cnc3c(NCCc4ccc(O)c(OC)c4)nc(C#Cc4ccc(Br)s4)nc31)[C@H](O)[C@@H]2O |  | 3.41 | 43 | 1.32 |  |  |  |  | 
14 | CNC(=O)[C@@]12C[C@@H]1[C@@H](n1cnc3c(NCc4ccc(O)c(OC)c4)nc(C#Cc4ccc(Cl)s4)nc31)[C@H](O)[C@@H]2O |  |  |  |  |  | 2330 |  | 8210 | 
15 | CCOC(=O)[C@@]12C[C@@H]1[C@@H](n1cnc3c(NCCc4ccc(O)c(OC)c4)nc(C#Cc4ccc(Cl)s4)nc31)[C@H](O)[C@@H]2O | 0 | 37.4 | 33 |  | 57 |  |  |  | 
16 | COc1cc(CCNc2nc(OCC(C)C)nc3c2ncn3[C@H]2[C@H](O)[C@H](O)[C@@H]3C[C@@H]32)ccc1O | 4 | 13.1 |  |  |  |  |  | 5050 | 
17 | CNC(=O)[C@@]12C[C@@H]1[C@@H](n1cnc3c(NCCc4ccc(OC)c(O)c4)nc(C#Cc4ccc(Cl)s4)nc31)[C@H](O)[C@@H]2O | 0 | 8.31 | 34 | 1.7 | 44 |  |  |  | 
18 | CNC(=O)[C@@]12C[C@@H]1[C@@H](n1cnc3c(NCCc4ccc(O)c(OC)c4)nc(C#Cc4ccsc4)nc31)[C@H](O)[C@@H]2O | 30 | 3.34 | 35 | 2.08 | 61 |  |  |  | 
19 | CNC(=O)[C@@]12C[C@@H]1[C@@H](n1cnc3c(NCCc4ccc(O)c(OC)c4)nc(C#Cc4ccc(F)c(F)c4)nc31)[C@H](O)[C@@H]2O | 11 | 4.98 | 9 | 3.31 |  | 5800 |  |  | 
20 | O[C@@H]1[C@H](O)[C@@H]2C[C@@H]2[C@H]1n1cnc2c(NCCc3ccccc3)nc(I)nc21 |  | 23.1 |  |  |  |  |  | 5860 | 
21 | CNC(=O)[C@@]12C[C@@H]1[C@@H](n1cnc3c(NCCc4ccccc4)nc(C#Cc4ccc(Cl)s4)nc31)[C@H](O)[C@@H]2O | 4 | 3.37 | 49 | 1.91 | 42 |  | 64.9 |  | 64
22 | CCOC(=O)[C@@]12C[C@@H]1[C@@H](n1cnc3c(NCCc4ccccc4)nc(C#Cc4ccc(Cl)s4)nc31)[C@H](O)[C@@H]2O |  | 60.8 | 24 |  |  |  |  |  | 
23 | CNC(=O)[C@@]12C[C@@H]1[C@@H](n1cnc3c(NCCc4ccc(O)c(OC)c4)nc(C#Cc4ccc(Cl)s4)nc31)[C@H](O)[C@@H]2O |  | 5.29 | 31 | 3.16 |  | 3.75 | 43.9 |  | 39.7
24 | CNC(=O)[C@@]12C[C@@H]1[C@@H](n1cnc3c(NCCc4ccc(O)c(OC)c4)nc(C#Cc4ccccc4)nc31)[C@H](O)[C@@H]2O | 2 | 0.563 | 28 | 1.54 |  | 5130 |  |  | 
25 | CNC(=O)[C@@]12C[C@@H]1[C@@H](n1cnc3c(NCCc4ccc(O)c(OC)c4)nc(I)nc31)[C@H](O)[C@@H]2O | 46 | 6.34 | 43 | 2.25 |  | 476 |  |  | 
26 | CNC(=O)[C@@]12C[C@@H]1[C@@H](n1cnc3c(NCCc4ccc(OC)c(OC)c4)nc(C#Cc4ccc(Br)s4)nc31)[C@H](O)[C@@H]2O |  | 8.01 | 36 |  |  |  |  |  | 

From ChEMBL document CHEMBL5154659, “A3 adenosine receptor agonists containing dopamine moieties for enhanced interspecies affinity” (Eur J Med Chem, 2022)
